Source: US20070167499A1, “Biaryl linked hydroxamates: preparation and pharmaceutical applications” (A*BIO Pte Ltd., priority 2003, published 2007)

Columns and labels:
NCI H552 = assay: Cell-based proliferation assay for determination of GI50 values, lung cancer cell line; conditions: Homo sapiens; 96 h treatment, cyquant cell proliferation assay; read-out: Cellular activities GI50, NCI H552
Protocol: (§1) Cell-based Proliferation assay for determination of GI50 values
(§2) Three different cancer cell lines were obtained from ATCC: Human colon cancer cell line (Colo205), human breast cancer cell lines (MDA-MB435), and human lung cancer cell line (NCl-H522). Colo205 cells and NCl-H522 were cultivated in RPMI 1640 containing 2 mM
(§3) L-Glutamine, 5% FBS, 1.0 mM Na Pyruvate. MDA-MB435 cells were cultivated in DMEM containing 2 mM L-Glutamine, 5% FBS. Colo205 cells were seeded in 96-wells plate at 2000 and 5000 cells per well respectively. MDA-MB435 and NCl-H522 cells were seeded in 96-wells plate at 6000 cells per well. The plates were incubated at 37° C., 5% CO2, for 24 h. Cells were treated with compounds at various concentrations for 96 h. Cell growth was then monitored using cyquant cell proliferation assay (Invitrogen Pte Ltd). Dose response curves were plotted to determine GI50 values for the compounds using XL-fit (ID Business Solution, Emeryville, Calif.).

Colo205 = assay: Cell-based proliferation assay for determination of GI50 values, colon cancer cell line; conditions: Homo sapiens, COLO 205; 96 h treatment, cyquant cell proliferation assay; read-out: Cellular activities GI50, Colo205
Protocol: as §1, §2, §3

In the case of CC(C)(C)OC(=O)N1CCN(c2ccc(C(=O)Nc3nc(-c4ccc(CC(=O)NO)s4)cs3)cc2)CC1 [Example 9], the GI50 (NCI H552) is reported as 3.01 µM and the GI50 (Colo205) is reported as 5.47 µM.
